Measurements taken from patent publication US20150140002A1, “USE OF A PCSK9 INHIBITOR TO TREAT […]” (Sanofi, priority 2013, published 2015).

System: patients with primary hypercholesterolemia (heFH and non-FH) who are intolerant to statins
Details: in vivo

For `CC(C)c1c(C(=O)Nc2ccccc2)c(-c2ccccc2)c(-c2ccc(F)cc2)n1CC[C@@H](O)C[C@@H](O)CC(=O)O` [atorvastatin], the “Cardiac disorders (SOC)” value (human) was 2 (3.2%) patients (%), the “Ear and labyrinth disorders (SOC)” value (human) was 1 (1.6%) patients (%) and the “General allergic TEAEs (MedDRA SMQ Hypersensitivity)” value (human) was 4 (6.3%) patients (%). For the same compound, the “Investigations (SOC)” value (human) was 3 (4.8%) patients (%), the Myalgia (human) was 27% and the “Psychiatric disorders (SOC)” value (human) was 2 (3.2%) patients (%). For the same compound, the “Skeletal muscle-related TEAEs (CMQ preferred term)” value (human) was 25 (39.7%) patients (%), the TEAEs (human) was 54 (85.7%) patients (%) and the “Treatment-emergent SAEs” value (human) was 7 (11.1%) patients (%). The “Treatment-emergent injection site reactions (ISRs)” value (human) was 1 (1.6%) patients (%), the “Treatment-emergent neurologic AEs” value (human) was 8 (12.7%) patients (%) and the “Treatment-emergent skeletal muscle-related events resulting in early treatment discontinuation” value (human) was 13 (20.6%) patients (%). For the same compound, the back pain (human) was 7.9%, the “early termination due to musculoskeletal and connective tissues disorders SOC events” value (human) was 14 [22.2%] patients [%] and the fatigue (human) was 7.9%. For the same compound, the headache (human) was 6.3%, the insomnia (human) was 1 (1.6%) reports (%) and the muscle spasms (human) was 11.1%. The muscular weakness (human) was 6.3%, the palpitations (human) was 0 reports (%) and the paraesthesia (human) was 6.3%. The “patients who prematurely discontinued study treatment due to a TEAE” value (human) was 16 (25.4%) patients (%), the “patients who prematurely terminated study treatment due to adverse events” value (human) was 16 (25.4%) patients (%) and the “rate of AEs” value (human) was 86%. The vertigo (human) was 1 (1.6%) reports (%) and the Treatment-emergent neurocognitive disorders was “zero”.
